In PubChem BioAssay (NCI):
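The compound was tested at five concentrations on cells cultured in 96-well plates, with a 48-hour exposure period. At the TGI there is no net growth.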

Columns and labels:
Test in all cases: NCI-60 cell line screen, 48 h
TK-10 renal = system: TK-10 renal
HCC-2998 colon = system: HCC-2998 colon
SN12C renal = system: SN12C renal
LOX IMVI melanoma = system: LOX IMVI melanoma
NCI-H522 lung = system: NCI-H522 lung
T-47D breast = system: T-47D breast
NCI/ADR-RES ovarian = system: NCI/ADR-RES ovarian
786-0 renal = system: 786-0 renal
EKVX NSCLC = system: EKVX NSCLC
MOLT-4 leukemia = system: MOLT-4 leukemia
CAKI-1 renal = system: CAKI-1 renal
OVCAR-8 ovarian = system: OVCAR-8 ovarian
BT-549 breast = system: BT-549 breast
SF-295 CNS = system: SF-295 CNS
RXF 393 renal = system: RXF 393 renal
OVCAR-5 ovarian = system: OVCAR-5 ovarian
SF-539 CNS = system: SF-539 CNS
CCRF-CEM leukemia = system: CCRF-CEM leukemia
PC-3 prostate = system: PC-3 prostate
M14 melanoma = system: M14 melanoma
ACHN renal = system: ACHN renal
SK-OV-3 ovarian = system: SK-OV-3 ovarian
A498 renal = system: A498 renal
SK-MEL-2 melanoma = system: SK-MEL-2 melanoma
SW-620 colon = system: SW-620 colon
UACC-257 melanoma = system: UACC-257 melanoma
U251 CNS = system: U251 CNS
HCT-15 colon = system: HCT-15 colon
SF-268 CNS = system: SF-268 CNS
HL-60(TB) leukemia = system: HL-60(TB) leukemia
OVCAR-3 ovarian = system: OVCAR-3 ovarian
KM12 colon = system: KM12 colon
MDA-MB-231 breast = system: MDA-MB-231 breast
RPMI-8226 leukemia = system: RPMI-8226 leukemia
NCI-H460 lung = system: NCI-H460 lung
K-562 leukemia = system: K-562 leukemia
UACC-62 melanoma = system: UACC-62 melanoma
HOP-92 NSCLC = system: HOP-92 NSCLC
MALME-3M melanoma = system: MALME-3M melanoma
SR leukemia = system: SR leukemia
HCT-116 colon = system: HCT-116 colon
SNB-75 CNS = system: SNB-75 CNS
MCF7 breast = system: MCF7 breast
A549 NSCLC = system: A549 NSCLC
HS 578T breast = system: HS 578T breast
MDA-MB-435 = system: MDA-MB-435
SNB-19 CNS = system: SNB-19 CNS
HT29 colon = system: HT29 colon
COLO 205 colon = system: COLO 205 colon
SK-MEL-28 melanoma = system: SK-MEL-28 melanoma
HOP-62 NSCLC = system: HOP-62 NSCLC
NCI-H23 lung = system: NCI-H23 lung
UO-31 renal = system: UO-31 renal
DU-145 prostate = system: DU-145 prostate
SK-MEL-5 melanoma = system: SK-MEL-5 melanoma
IGROV1 ovarian = system: IGROV1 ovarian
MDA-N = system: MDA-N

Compound: CC(C)OC(=O)NNc1c(Cl)cc(Cl)cc1Cl
- TGI (TK-10 renal): > 100 µM
- TGI (HCC-2998 colon): > 100 µM
- TGI (SN12C renal): > 100 µM
- TGI (LOX IMVI melanoma): > 100 µM
- TGI (NCI-H522 lung): 95.4 µM
- TGI (T-47D breast): > 100 µM
- TGI (NCI/ADR-RES ovarian): > 100 µM
- TGI (786-0 renal): > 100 µM
- TGI (EKVX NSCLC): > 100 µM
- TGI (MOLT-4 leukemia): > 100 µM
- TGI (CAKI-1 renal): > 100 µM
- TGI (OVCAR-8 ovarian): > 100 µM
- TGI (BT-549 breast): > 100 µM
- TGI (SF-295 CNS): > 100 µM
- TGI (RXF 393 renal): 69.5 µM
- TGI (OVCAR-5 ovarian): > 100 µM
- TGI (SF-539 CNS): > 100 µM
- TGI (CCRF-CEM leukemia): > 100 µM
- TGI (PC-3 prostate): > 100 µM
- TGI (M14 melanoma): > 100 µM
- TGI (ACHN renal): > 100 µM
- TGI (SK-OV-3 ovarian): > 100 µM
- TGI (A498 renal): > 100 µM
- TGI (SK-MEL-2 melanoma): > 100 µM
- TGI (SW-620 colon): > 100 µM
- TGI (UACC-257 melanoma): > 100 µM
- TGI (U251 CNS): > 100 µM
- TGI (HCT-15 colon): > 100 µM
- TGI (SF-268 CNS): > 100 µM
- TGI (HL-60(TB) leukemia): > 100 µM
- TGI (OVCAR-3 ovarian): > 100 µM
- TGI (KM12 colon): > 100 µM
- TGI (MDA-MB-231 breast): > 100 µM
- TGI (RPMI-8226 leukemia): > 100 µM
- TGI (NCI-H460 lung): > 100 µM
- TGI (K-562 leukemia): > 100 µM
- TGI (UACC-62 melanoma): > 100 µM
- TGI (HOP-92 NSCLC): > 100 µM
- TGI (MALME-3M melanoma): 74.2 µM
- TGI (SR leukemia): > 100 µM
- TGI (HCT-116 colon): > 100 µM
- TGI (SNB-75 CNS): > 100 µM
- TGI (MCF7 breast): > 100 µM
- TGI (A549 NSCLC): > 100 µM
- TGI (HS 578T breast): > 100 µM
- TGI (MDA-MB-435): > 100 µM
- TGI (SNB-19 CNS): > 100 µM
- TGI (HT29 colon): > 100 µM
- TGI (COLO 205 colon): > 100 µM
- TGI (SK-MEL-28 melanoma): > 100 µM
- TGI (HOP-62 NSCLC): > 100 µM
- TGI (NCI-H23 lung): > 100 µM
- TGI (UO-31 renal): > 100 µM
- TGI (DU-145 prostate): > 100 µM
- TGI (SK-MEL-5 melanoma): 60.5 µM
- TGI (IGROV1 ovarian): > 100 µM
- TGI (MDA-N): > 100 µM
